# Experimental data: patent US20140073778A9, “CONJUGATES COMPRISING HYDROXYALKYL STARCH AND A CYTOTOXIC AGENT AND PROCESS FOR THEIR PREPARATION” (priority 2010, published 2014)
# Marks after values point to notes of the source that are not given here.
# What was measured:
# [1] = test system: human lung carcinoma LXFL-529; test: Tumor growth inhibition (relative tumor volume) in LXFL-529 xenograft model; assay type: in vivo, human (xenograft in NMRI nu/nu mice)
# Description: (§1) Mouse strain: NMRI nu/nu, female Animals supplied by: Charles River, Germany Age of mice at implantation: 5-7 weeks
# (§2) The tumor xenografts LXFL-529 and MAXF-401 (Fiebig H H, Berger D P, Dengler W A, Wallbrecher E, Winterhalter B R: Combined In Vitro/In Vivo Test Procedure with Human Tumor Xenografts for New Drug Development. Contrib. Oncol., Basel, Karger, 1992, Vol. 42, pp 321-351) used in this study were derived from surgical specimen from patients treated at the University Hospital in Freiburg, Germany, and directly implanted into nude mice. Prior to surgery, most of the patients had not received any chemotherapy.
# (§3) Tumor fragments were obtained from xenografts in serial passage in nude mice. After removal from donor mice, tumors were cut into fragments (4-5 mm diameter) and placed in PBS until subcutaneous implantation. Recipient mice were anaesthetized by inhalation of isoflurane. A small incision was made in the back and one tumor fragment per animal was transplanted with tweezers. The mice were monitored daily.
# (§4) At randomization, tumor-bearing animals were stratified according to tumor volume into treatment and vehicle (control) groups. Only animals carrying one tumor of appropriate size (approximately 50-250 mm^3) were considered for randomization. Mice were randomized when the required number of mice qualified for randomization. The day of randomization was designated as day 0, which was also the first day of dosing.
# (§5) All test items were formulated in 0.9% NaCl solution and given as i.v. bolus injection.
# (§6) Measurement of tumor volume and body weight as well as calculations of relative tumor volumes were carries out analgue to the procedure described in 2.3.
# [2] = Body weight change / toxicity in MAXF-401 xenograft-bearing mice; assay type: in vivo, NMRI nu/nu mice; conditions: Table 18, CA4P 50, 40 mg/kg/inj. d 0, 10, CCs1 60 d 0, CCs2 60, 40 d 0, 10
# Method: All experiments were conducted according to the guidelines of the German Animal Welfare Act (Tierschutzgesetz). Animal health was examined prior to tumor implantation and randomization to ensure that only animals without any symptoms of disease were selected to enter testing procedures. During the experiments, animals were monitored daily regarding tumor burden, general condition, feed and water supply.
# as §5, §6
# [3] = test system: human mammary carcinoma (MAXF-401); test: Tumor growth inhibition (relative tumor volume) in MAXF-401 xenograft model; assay type: in vivo, human (xenograft in NMRI nu/nu mice)
# Description: as §1, §2, §3
# as §4, with “The day of randomization was designated as day 0, which was also the first day of dosing.” left out
# [4] = test system: human colon carcinoma HT-29; test: Tumor growth inhibition (relative tumor volume, T/C) in s.c. HT-29 xenograft model; assay type: in vivo, human (xenograft in NMRI:nu/nu mice)
# Method: The cells were obtained from ATCC and are cryo-preserved within the EPO tumor bank. They were thawed, expanded in vitro and transplanted as cell suspension subcutaneously (s.c.) in female NMRI:nu/nu mice. […] It was therefore selected for this study.
# For experimental use 10^7 tumor cells/mouse from the in vitro passage were transplanted s.c. into the flank of each of 10 mice/group at day 0.
# (§7) […] The application volume was 0.2 ml/20 g mouse body weight. The test compounds, the vehicle controls and the reference compounds were all given intravenously (i.v.).
# (§8) Tumor growth inhibition was used as therapeutic parameter. Additionally, body weight change was determined as signs for toxicity (particularly, potential hematological or gastrointestinal side effects).
# Tumor diameters were measured twice weekly with a caliper. Tumor volumes were calculated according to V=(length×(width)^2)/2. For calculation of the relative tumor volume (RTV) the tumor volumes at each measurement day were related to the day of first treatment. At each measurement day the median and mean tumor volumes per group and also the treated to control (T/C) values in percent were calculated.
# Descriptive statistics were performed on the data of body weight and tumor volume. […] Statistical evaluation was performed with the U-test of Mann and Whitney with a significance level of p≦0.05, using the Windows program […] 6.
# Solutions were prepared immediately before injection by solving the conjugates in saline solution by vortexing in combination with centrifugation until a clear solution of the necessary concentration of the drug was obtained.
# [5] = Body weight change as sign of toxicity in HT-29 xenograft-bearing mice; assay type: in vivo, NMRI:nu/nu mice
# Method: as §7, §8
# Individual body weights of mice were determined twice weekly and mean body weight per group was related to the initial value in percent (body weight change, BWC).
# On the day of necropsy mice were sacrificed by cervical dislocation and inspected for gross organ changes.
# The loss of body weight is known to be an indicator of gastrointestinal and hepatotoxicity of the tested compound.
smiles,measurement,setting,value
"COc1cc([C@@H]2c3cc4c(cc3[C@@H](O[C@@H]3O[C@@H]5CO[C@@H](C)O[C@H]5[C@H](O)[C@H]3O)[C@H]3COC(=O)[C@H]23)OCO4)cc(OC)c1O [etoposide, Etoposide]",loss of tumor volume between d7 and d16,"[1]; LXFL-529 xenografts in nude mice, tumor shrinkage after day 7",26%
same,tumors still shrinking or at least stabile,"[1]; LXFL-529 xenografts, at the last day of the experiment",2/5
"COc1ccc(/C=C\c2cc(OC)c(OC)c(OC)c2)cc1OP(=O)([O-])[O-].[Na+].[Na+] [combretastatin A4 phosphate, Combretastatin A4 phosphate disodium salt]",BWC [%] (at day),[2]; day of value in parentheses,−1.8 (7) %
same,Mortality (at day),[2]; deaths of 4 mice (day),0
same,inhibition of tumor growth,"[3]; MAXF-401 xenografts in nude mice, i.v. bolus",only modest anti-tumor activity
same,RTV T/C (%) Optimum (at day),"[3]; Table 18, CA4P 50, 40 mg/kg/inj. d 0, 10, CCs1 60 d 0, CCs2 60, 40 d 0, 10, day of optimum in parentheses",59.8 (13) %
COc1cc([C@@H]2c3cc4c(cc3[C@@H](O[C@@H]3O[C@@H]5CO[C@@H](C)O[C@H]5[C@H](O)[C@H]3O)[C@H]3COC(=O)[C@H]23)OCO4)cc(OC)c1O [V-16 (Etoposid)],Tumor volume cm^3/d 16,"[1]; Table 19, day 16, treatment d 0, 3, 7, Etoposid 20 mg/kg/inj., CEt1 20, 40, 50 mg/kg/inj.",0.293 +/− 0.137 cm^3
same,RTV T/C (%) Optimum (at day),"[1]; Table 19, optimum at day 16, treatment d 0, 3, 7, Etoposid 20 mg/kg/inj., CEt1 20, 40, 50 mg/kg/inj.",15.5 (16) %
same,RTV T/C (%) re-normalized on day 7,"[1]; Table 19, re-normalized on day 7, treatment d 0, 3, 7, Etoposid 20 mg/kg/inj., CEt1 20, 40, 50 mg/kg/inj.",22.6%
CCc1c2c(nc3ccc(OC(=O)N4CCC(N5CCCCC5)CC4)cc13)-c1cc3c(c(=O)n1C2)COC(=O)[C@]3(O)CC [Irinotecan],RTV T/C (%) Optimum (at day),"[4]; Table 14, optimum at day 54, Irinotecan 15 mg/kg/inj. d 9-13, conjugates 60 mg/kg/inj. d 9",48.2%
same,RTV T/C (%) Optimum (at day),"[4]; Table 15, Irinotecan 15 mg/kg/inj. d 8-12, conjugates 60 mg/kg/inj. d 8, day of optimum printed below value (30; CSN10 34; CSN13 13)",27.7* %
same,RTV T/C (%) Optimum (at day),"[4]; Table 16, 60 mg/kg/inj. d 7, day of optimum in parentheses (21-42)",66.3%
same,Toxic death (day),"[5]; Table 14, number of toxic deaths of 8 mice, Irinotecan 15 mg/kg/inj. d 9-13, conjugates 60 mg/kg/inj. d 9, day of death in parentheses",1
same,Toxic death (at day),"[5]; Table 17, number of toxic deaths per group (day), treatment d 8, Irinotecan 60, CSN21 30, CSN23 60, CSN22 and CIr1-3 80 mg/kg/inj.",1 (20)
